Source: ChEMBL document CHEMBL1141022, “1,2,3-Triazole derivatives as new cannabinoid CB1 receptor antagonists” (Bioorg Med Chem Lett, 2009)

Legend:
Cannabinoid receptor 1 [1] = biological target: T1, Cannabinoid receptor 1 (Homo sapiens, UniProt P21554); test: Antagonist activity at human CB1 receptor expressed in HEK293 cells assessed as inhibition of Eu-GTP binding; format: cell-based
Homo sapiens = species: Homo sapiens; test: Selectivity ratio of IC50 for human CB2 receptor to IC50 for human CB1 receptor
Cannabinoid receptor 2 = Cannabinoid receptor 2 (Homo sapiens, UniProt P34972); test: Displacement of [3H]CP-55940 from human CB2 receptor expressed in HEK293 cells; format: cell-based
Sequence of Cannabinoid receptor 2 (P34972 whole entry): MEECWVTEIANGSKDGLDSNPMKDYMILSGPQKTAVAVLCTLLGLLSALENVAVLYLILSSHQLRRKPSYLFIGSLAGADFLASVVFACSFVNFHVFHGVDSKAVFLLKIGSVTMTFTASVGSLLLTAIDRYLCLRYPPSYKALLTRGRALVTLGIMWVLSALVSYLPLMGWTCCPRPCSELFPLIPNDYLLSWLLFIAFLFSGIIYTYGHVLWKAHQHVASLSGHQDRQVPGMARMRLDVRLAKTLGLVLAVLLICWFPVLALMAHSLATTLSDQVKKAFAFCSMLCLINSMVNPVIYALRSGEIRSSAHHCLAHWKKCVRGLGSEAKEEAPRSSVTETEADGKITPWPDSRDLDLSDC

Cannabinoid receptor 1 [2] = biological target: T1, Cannabinoid receptor 1; test: Displacement of [3H]CP-55940 from human CB1 receptor expressed in HEK293 cells at 10 uM; format: cell-based
Cannabinoid receptor 1 [3] = biological target: T1, Cannabinoid receptor 1; test: biochemical; format: cell-based, HEK293

T1 sequence (P21554 whole entry): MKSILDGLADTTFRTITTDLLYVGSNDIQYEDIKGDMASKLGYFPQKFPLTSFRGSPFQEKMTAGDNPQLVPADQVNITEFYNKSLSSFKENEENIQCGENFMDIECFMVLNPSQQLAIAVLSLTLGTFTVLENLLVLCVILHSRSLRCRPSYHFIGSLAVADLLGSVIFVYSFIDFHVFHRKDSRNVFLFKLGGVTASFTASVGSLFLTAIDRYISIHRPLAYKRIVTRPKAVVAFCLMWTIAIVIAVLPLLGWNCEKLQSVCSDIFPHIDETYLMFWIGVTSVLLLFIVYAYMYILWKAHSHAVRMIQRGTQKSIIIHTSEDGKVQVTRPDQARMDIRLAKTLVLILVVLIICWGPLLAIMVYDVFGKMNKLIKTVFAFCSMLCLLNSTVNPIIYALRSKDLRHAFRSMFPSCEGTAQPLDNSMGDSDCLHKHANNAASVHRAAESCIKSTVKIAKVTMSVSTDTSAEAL

Compound: COc1ccc(CNC(=O)Cn2nc(-c3ccc(Cl)cc3Cl)c(-c3ccc(Cl)cc3Cl)n2)cc1
- EC50 (Cannabinoid receptor 1 [1]): 0.0562 µM
- Ratio IC50 (Homo sapiens): > 1000
- IC50 (Cannabinoid receptor 2): > 10 µM

Compound: CCCCOC(=O)Cn1nnc(-c2ccc(Cl)cc2)c1-c1ccc(Cl)cc1
- inhibition (Cannabinoid receptor 1 [2]): 64.1%
- Ratio IC50 (Homo sapiens): > 1000

Compound: O=C(Cn1nc(-c2ccc(Cl)cc2)c(-c2ccc(Cl)cc2Cl)n1)NCc1ccccc1F
- EC50 (Cannabinoid receptor 1 [1]): 0.256 µM
- Ratio IC50 (Homo sapiens): > 1000
- IC50 (Cannabinoid receptor 2): > 10 µM

Compound: O=C(Cn1nc(-c2ccc(Cl)cc2Cl)c(-c2ccc(Cl)cc2Cl)n1)N1CCCCC1
- IC50 (Cannabinoid receptor 2): 5.9 µM

Compound: O=C(NC12CC3CC(CC(C3)C1)C2)n1nc(-c2ccc(Cl)cc2)c(-c2ccc(Cl)cc2Cl)n1
- inhibition (Cannabinoid receptor 1 [2]): 34.5%
- Ratio IC50 (Homo sapiens): > 1000

Compound: O=C(Cn1nc(-c2ccc(Cl)cc2)c(-c2ccc(Cl)cc2Cl)n1)NCc1ccccc1
- EC50 (Cannabinoid receptor 1 [1]): 0.216 µM
- Ratio IC50 (Homo sapiens): > 1000
- IC50 (Cannabinoid receptor 2): > 10 µM

Compound: O=C(NCc1ccccc1)n1nc(-c2ccc(Cl)cc2)c(-c2ccc(Cl)cc2Cl)n1
- inhibition (Cannabinoid receptor 1 [2]): 18.6%
- Ratio IC50 (Homo sapiens): > 1000

Compound: O=C(Cn1nc(-c2ccc(Cl)cc2Cl)c(-c2ccc(Cl)cc2Cl)n1)Nc1ccccc1
- EC50 (Cannabinoid receptor 1 [1]): 0.136 µM
- Ratio IC50 (Homo sapiens): > 1000
- IC50 (Cannabinoid receptor 2): > 10 µM

Compound: O=C(NCc1ccccc1)n1nc(-c2ccc(Cl)cc2Cl)c(-c2ccc(Cl)cc2Cl)n1
- inhibition (Cannabinoid receptor 1 [2]): 23.8%
- Ratio IC50 (Homo sapiens): > 1000

Compound: O=C(Cn1nc(-c2ccc(Cl)cc2Cl)c(-c2ccc(Cl)cc2Cl)n1)NCc1ccccc1F
- EC50 (Cannabinoid receptor 1 [1]): 0.0235 µM
- Ratio IC50 (Homo sapiens): > 1000
- IC50 (Cannabinoid receptor 2): > 10 µM

Compound: O=C(NC1CCCCC1)n1nc(-c2ccc(Cl)cc2)c(-c2ccc(Cl)cc2Cl)n1
- inhibition (Cannabinoid receptor 1 [2]): 30.5%
- Ratio IC50 (Homo sapiens): > 1000

Compound: O=C(Cn1nc(-c2ccc(Cl)cc2Cl)c(-c2ccc(Cl)cc2Cl)n1)NC1CCCCC1
- EC50 (Cannabinoid receptor 1 [1]): 0.204 µM
- Ratio IC50 (Homo sapiens): > 1000
- IC50 (Cannabinoid receptor 2): > 10 µM

Compound: O=C(Cn1nc(-c2ccc(Cl)cc2Cl)c(-c2ccc(Cl)cc2Cl)n1)NCc1ccccc1
- EC50 (Cannabinoid receptor 1 [1]): 0.087 µM
- Ratio IC50 (Homo sapiens): > 1000
- IC50 (Cannabinoid receptor 2): > 10 µM

Compound: O=C(Cn1nc(-c2ccc(Cl)cc2Cl)c(-c2ccc(Cl)cc2Cl)n1)Oc1ccccc1
- inhibition (Cannabinoid receptor 1 [2]): 14.3%
- Ratio IC50 (Homo sapiens): > 1000

Compound: CCCCOC(=O)Cn1nc(-c2ccc(Cl)cc2Cl)c(-c2ccc(Cl)cc2Cl)n1
- Ratio IC50 (Homo sapiens): > 1000

Compound: O=C(NC1CCCCC1)n1nc(-c2ccc(Cl)cc2Cl)c(-c2ccc(Cl)cc2Cl)n1
- inhibition (Cannabinoid receptor 1 [2]): 29.2%
- Ratio IC50 (Homo sapiens): > 1000

Compound: O=C(NC12CC3CC(CC(C3)C1)C2)n1nc(-c2ccc(Cl)cc2Cl)c(-c2ccc(Cl)cc2Cl)n1
- inhibition (Cannabinoid receptor 1 [2]): 78.9%
- Ratio IC50 (Homo sapiens): > 1000

Compound: O=C(Cn1nc(-c2ccc(Cl)cc2)c(-c2ccc(Cl)cc2Cl)n1)NCc1ccc(F)cc1
- EC50 (Cannabinoid receptor 1 [1]): 0.235 µM
- Ratio IC50 (Homo sapiens): > 1000
- IC50 (Cannabinoid receptor 2): > 10 µM

Compound: O=C(Cn1nc(-c2ccc(Cl)cc2Cl)c(-c2ccc(Cl)cc2Cl)n1)NCc1cccc(F)c1
- EC50 (Cannabinoid receptor 1 [1]): 0.0351 µM
- Ratio IC50 (Homo sapiens): > 1000
- IC50 (Cannabinoid receptor 2): > 10 µM

Compound: O=C(Cn1nnc(-c2ccc(Cl)cc2)c1-c1ccc(Cl)cc1)N1CCCCC1
- inhibition (Cannabinoid receptor 1 [2]): 33%
- Ratio IC50 (Homo sapiens): > 1000

Compound: O=C(Cn1nc(-c2ccc(Cl)cc2Cl)c(-c2ccc(Cl)cc2Cl)n1)NCc1ccc(Cl)cc1
- EC50 (Cannabinoid receptor 1 [1]): 0.0178 µM
- Ratio IC50 (Homo sapiens): > 1000
- IC50 (Cannabinoid receptor 2): > 10 µM

Compound: O=C(Cn1nc(-c2ccc(Cl)cc2Cl)c(-c2ccc(Cl)cc2Cl)n1)NCc1cc(F)ccc1F
- IC50 (Cannabinoid receptor 1 [3]): 0.0226 µM
- EC50 (Cannabinoid receptor 1 [1]): 0.022 µM
- Ratio IC50 (Homo sapiens): > 1000
- IC50 (Cannabinoid receptor 2): > 10 µM

Compound: O=C(Cn1nnc(-c2ccc(Cl)cc2Cl)c1-c1ccc(Cl)cc1Cl)N1CCCCC1
- inhibition (Cannabinoid receptor 1 [2]): 55.7%
- Ratio IC50 (Homo sapiens): > 1000

Compound: O=C(NC12CC3CC(CC(C3)C1)C2)n1nc(-c2ccc(Cl)cc2)c(-c2ccc(Cl)cc2)n1
- inhibition (Cannabinoid receptor 1 [2]): 19.7%
- Ratio IC50 (Homo sapiens): > 1000

Compound: O=C(Cn1nc(-c2ccc(Cl)cc2Cl)c(-c2ccc(Cl)cc2Cl)n1)NCc1ccccc1Cl
- EC50 (Cannabinoid receptor 1 [1]): 0.0122 µM
- Ratio IC50 (Homo sapiens): > 1000
- IC50 (Cannabinoid receptor 2): > 10 µM

Compound: CCCCOC(=O)Cn1nnc(-c2ccc(Cl)cc2Cl)c1-c1ccc(Cl)cc1Cl
- inhibition (Cannabinoid receptor 1 [2]): 46.1%
- Ratio IC50 (Homo sapiens): > 1000

Compound: O=C(Cn1nc(-c2ccc(Cl)cc2Cl)c(-c2ccc(Cl)cc2Cl)n1)NCc1ccc(F)cc1
- EC50 (Cannabinoid receptor 1 [1]): 0.0507 µM
- Ratio IC50 (Homo sapiens): > 1000
- IC50 (Cannabinoid receptor 2): > 10 µM

Compound: O=C(NC1CCCCC1)n1nc(-c2ccc(Cl)cc2)c(-c2ccc(Cl)cc2)n1
- inhibition (Cannabinoid receptor 1 [2]): 19.9%
- Ratio IC50 (Homo sapiens): > 1000
